Data reported in patent US20250289787A1, “HERBICIDAL 2-OXO-NICOTINIC ACID DERIVATIVES” (SYNGENTA CROP PROTECTION AG, priority 2022, published 2025).

Experiments:
Assay type in all cases: in vivo
Set-up in all cases: key: 5=81-100%; 4=61-80%; 3=41-60%; 2=21-40%; 1=1-20%; 0=no damage to the plant; -=not tested
Setaria faberi (SETFA) [1] = assay: Pre-emergence test, herbicidal damage; conditions: 1000 g/ha unless otherwise stated, evaluated after 13 days, five-point scale
[2] = tested on: Amaranthus retoflexus (AMARE); assay: Pre-emergence test, herbicidal damage; conditions: 1000 g/ha unless otherwise stated, evaluated after 13 days, five-point scale
[3] = tested on: Amaranthus palmeri (AMAPA); assay: Pre-emergence test, herbicidal damage; conditions: 1000 g/ha unless otherwise stated, evaluated after 13 days, five-point scale
[4] = tested on: Amaranthus retoflexus (AMARE); assay: Post-emergence test, herbicidal damage; conditions: sprayed after 8 days cultivation, 1000 g/ha unless otherwise stated, evaluated after 13 days, five-point scale
Method: (§1) Seeds of a variety of test species are sown in standard soil in pots Amaranthus palmeri (AMAPA), (Amaranthus retoflexus (AMARE), Echinochloa crus-galli (ECHCG), Zea mays (ZEAMX), Ipomoea 5 hederacea (IPOHE), and Setaria faberi (SETFA). After 8 days cultivation under controlled conditions in a glasshouse (at 24° C./16° C., day/night; 14 hours light; 65% humidity), the plants are sprayed with an aqueous spray solution derived from the formulation of the technical active ingredient in acetone/water (50:50) solution containing 0.5% Tween 20 (polyoxyethelyene sorbitan monolaurate, CAS RN 9005-64-5). Compounds are applied at 1000 g/ha unless otherwise stated. The test plants are then grown in a glasshouse under controlled conditions in a glasshouse (at 24° C./16° C., day/night; 14 hours light; 65% humidity) and watered twice daily. After 13 days the test is evaluated for the percentage damage caused to the plant. The biological activities are shown in the following table on a five-point scale (5=81-100%; 4=61-80%; 3=41-60%; 2=21-40%; 1=1-20%; 0=no damage to the plant; -=not tested).

[5] = tested on: Echinochloa crus-galli (ECHCG); assay: Post-emergence test, herbicidal damage; conditions: sprayed after 8 days cultivation, 1000 g/ha unless otherwise stated, evaluated after 13 days, five-point scale
Method: as §1

Setaria faberi (SETFA) [6] = assay: Post-emergence test, herbicidal damage; conditions: sprayed after 8 days cultivation, 1000 g/ha unless otherwise stated, evaluated after 13 days, five-point scale
Method: as §1

[7] = tested on: Ipomoea hederacea (IPOHE); assay: Post-emergence test, herbicidal damage; conditions: sprayed after 8 days cultivation, 1000 g/ha unless otherwise stated, evaluated after 13 days, five-point scale
Method: as §1

[8] = tested on: Amaranthus palmeri (AMAPA); assay: Post-emergence test, herbicidal damage; conditions: sprayed after 8 days cultivation, 1000 g/ha unless otherwise stated, evaluated after 13 days, five-point scale
Method: as §1

Zea mays (ZEAMX) [9] = assay: Post-emergence test, herbicidal damage; conditions: sprayed after 8 days cultivation, 1000 g/ha unless otherwise stated, evaluated after 13 days, five-point scale
Method: as §1

[10] = tested on: Echinochloa crus-galli (ECHCG); assay: Pre-emergence test, herbicidal damage; conditions: 1000 g/ha unless otherwise stated, evaluated after 13 days, five-point scale
Zea mays (ZEAMX) [11] = assay: Pre-emergence test, herbicidal damage; conditions: 1000 g/ha unless otherwise stated, evaluated after 13 days, five-point scale
[12] = tested on: Ipomoea hederacea (IPOHE); assay: Pre-emergence test, herbicidal damage; conditions: 1000 g/ha unless otherwise stated, evaluated after 13 days, five-point scale

Compound | percentage damage caused to the plant, SEFTA (Setaria faberi (SETFA) [1]) | percentage damage caused to the plant, AMARE [2] | percentage damage caused to the plant, AMAPA [3] | percentage damage caused to the plant, AMARE [4] | percentage damage caused to the plant, ECHCG [5] | percentage damage caused to the plant, SEFTA (Setaria faberi (SETFA) [6]) | percentage damage caused to the plant, IPOHE [7] | percentage damage caused to the plant, AMAPA [8] | percentage damage caused to the plant, ZEAMX (Zea mays (ZEAMX) [9]) | percentage damage caused to the plant, ECHCG [10] | percentage damage caused to the plant, ZEAMX (Zea mays (ZEAMX) [11]) | percentage damage caused to the plant, IPOHE [12]
Cc1cc(-c2ccc(Cl)c(Cl)c2)c(C(=O)O)c(=O)n1-c1cccc(C(F)(F)F)c1F [Compound 17, 4-(3,4-dichlorophenyl)-1-[2-fluoro-3-(trifluoromethyl)phenyl]-6-methyl-2-oxo-pyridine-3-carboxylic acid] | 0 | 0 | 0 | 1 (1=1-20%) | 0 | 1 (1=1-20%) | 0 | 2 (2=21-40%) | 0 | 0 | 0 | 0
Cc1cc(-c2ccc(Cl)c(Cl)c2)c(C(=O)O)c(=O)n1-c1ncc(Cl)cc1F [Compound 18, 1-(5-chloro-3-fluoro-2-pyridyl)-4-(3,4-dichlorophenyl)-6-methyl-2-oxo-pyridine-3-carboxylic acid] | 0 | 0 | 0 | 0 | 1 (1=1-20%) | 0 | 1 (1=1-20%) | 1 (1=1-20%) | 1 (1=1-20%) | 0 | 0 | 0
Cc1cc(-c2ccc(Cl)c(Cl)c2)c(C(=O)O)c(=O)n1-c1ncc(Cl)cc1Cl [Compound 19, 4-(3,4-dichlorophenyl)-1-(3,5-dichloro-2-pyridyl)-6-methyl-2-oxo-pyridine-3-carboxylic acid] | 0 | 0 | 0 | 0 | 1 (1=1-20%) | 1 (1=1-20%) | 1 (1=1-20%) | 1 (1=1-20%) | 1 (1=1-20%) | 0 | 0 | 0
Cc1c(Cl)c(-c2ccc(Cl)c(Cl)c2)c(C(=O)O)c(=O)n1-c1ccc(F)cc1 [Compound 20, 5-chloro-4-(3,4-dichlorophenyl)-1-(4-fluorophenyl)-6-methyl-2-oxo-pyridine-3-carboxylic acid] | 2 (2=21-40%) | 4 (4=61-80%) | 5 (5=81-100%) | 4 (4=61-80%) | 2 (2=21-40%) | 4 (4=61-80%) | 2 (2=21-40%) | 5 (5=81-100%) | 4 (4=61-80%) | 1 (1=1-20%) | 0 | 1 (1=1-20%)
Cc1cc(-c2ccc(Cl)c(Cl)c2)c(C(=O)O)c(=O)n1Cc1ccc(Cl)cc1F [Compound 22, 1-[(4-chloro-2-fluoro-phenyl)methyl]-4-(3,4-dichlorophenyl)-6-methyl-2-oxo-pyridine-3-carboxylic acid] | 1 (1=1-20%) | 1 (1=1-20%) | 1 (1=1-20%) | 3 (3=41-60%) | 0 | 1 (1=1-20%) | 1 (1=1-20%) | 3 (3=41-60%) | 1 (1=1-20%) | 1 (1=1-20%) | 1 (1=1-20%) | 0
Cc1c(Cl)c(-c2ccc(Cl)c(Cl)c2)c(C(=O)O)c(=O)n1-c1cccc(C(F)(F)F)c1F [Compound 23, 5-chloro-4-(3,4-dichlorophenyl)-1-[2-fluoro-3-(trifluoromethyl)phenyl]-6-methyl-2-oxo-pyridine-3-carboxylic acid] | 1 (1=1-20%) | 4 (4=61-80%) | 4 (4=61-80%) | 4 (4=61-80%) | 1 (1=1-20%) | 1 (1=1-20%) | 1 (1=1-20%) | 4 (4=61-80%) | 1 (1=1-20%) | 1 (1=1-20%) | 0 | 0
Cc1c(Cl)c(-c2ccc(Cl)c(Cl)c2)c(C(=O)O)c(=O)n1-c1ccc(Cl)cc1F [Compound 25, 5-chloro-1-(4-chloro-2-fluoro-phenyl)-4-(3,4-dichlorophenyl)-6-methyl-2-oxo-pyridine-3-carboxylic acid] | 2 (2=21-40%) | 4 (4=61-80%) | 4 (4=61-80%) | 3 (3=41-60%) | 1 (1=1-20%) | 1 (1=1-20%) | 1 (1=1-20%) | 3 (3=41-60%) | 1 (1=1-20%) | 2 (2=21-40%) | 1 (1=1-20%) | 1 (1=1-20%)
Cc1c(-c2ccc(Cl)c(Cl)c2)c(C(=O)O)c(=O)n(-c2ccc(Cl)cc2F)c1C [Compound 26, 1-(4-chloro-2-fluoro-phenyl)-4-(3,4-dichlorophenyl)-5,6-dimethyl-2-oxo-pyridine-3-carboxylic acid] | 1 (1=1-20%) | 3 (3=41-60%) | 3 (3=41-60%) | 3 (3=41-60%) | 1 (1=1-20%) | 1 (1=1-20%) | 0 | 3 (3=41-60%) | 1 (1=1-20%) | 0 | 1 (1=1-20%) | 1 (1=1-20%)
